pIC50, pKi: −log10 of the molar value. Like-named read-outs stand apart in the source and are kept apart here.

This is an account of results in patent US11130780B2, “Inhibitors of growth factor activation enzymes” (Washington University, priority 2015, dated 2021).

Holding throughout (format): biochemical
One experiment addresses T1, HGFA (Homo sapiens, UniProt Q04756).
T1 construct: His6 tag (N); seven amino acid spacer and seven amino acid TEV cleavage site (N); Honey Bee melittin signal peptide (N); made in house; host or cells: High 5 insect cells (baculovirus; virus raised in Sf9)
T1 sequence (Q04756 373-655): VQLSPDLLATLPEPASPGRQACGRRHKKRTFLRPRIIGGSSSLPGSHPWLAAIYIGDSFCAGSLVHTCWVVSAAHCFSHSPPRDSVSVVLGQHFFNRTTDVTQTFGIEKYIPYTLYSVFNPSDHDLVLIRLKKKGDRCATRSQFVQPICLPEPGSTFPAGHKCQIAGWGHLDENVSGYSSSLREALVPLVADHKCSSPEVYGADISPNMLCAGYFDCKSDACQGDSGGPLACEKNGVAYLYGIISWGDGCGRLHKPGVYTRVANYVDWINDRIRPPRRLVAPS
Put plainly: Chromogenic kinetic enzyme inhibitor assay of HGFA. As to conditions: Table 4.1; chromogenic substrate Pefachrome FVIIa. The source says: This PCR product was cloned into the SfoI-HindIII sites of a modified pFastBac HT baculovirus expression vector (Addgene, Cambridge, Mass.). This vector contains a six amino His tag followed by a seven amino spacer and a seven amino acid TEV cleavage site placed immediately downstream of the Honey Bee melittin signal peptide. Using a modified Bac to Bac Expression System (Life Technologies, Carlsbad, Calif.), recombinant HGFA bacmids were obtained by transforming DH10Bac Escherichia coli cells. To obtain HGFA containing baculovirus, purified bacmids were transfected into Sf9 insect cells. After 5 days in culture at 27° C., media was harvested from transfected Sf9 cells. This media was used to prepare baculovirus infected insect cells (BIICs). These BIIICs were used to infect High 5 insect cells. Four days post infection, media was harvested and recombinant protein prepared as follows. Media was chilled to 4° C. and spun at 4000×g for 20 minutes (all subsequent steps were performed at 4° C. unless noted). […] Concentrated media was then buffer exchanged in two steps, five volumes of 50 mM Na-phosphate, 500 mM NaCl, pH 6.2, followed by five volumes of 50 mM Na-phosphate, 500 mM NaCl, pH 7.5. […] After mixing this slurry for 12 hours, nickel agarose beads were allowed to settle by gravity and then loaded into a column. Beads were washed with buffer (25 mM Na-phosphate, 500 mM NaCl, 25 mM imidazole, pH 8) and the bound protein eluted using (25 mM Na-phosphate, 500 mM NaCl, 250 mM imidazole, pH 8). Using a Amicon Ultra-4 Centrifugal filters (#UFC801008, Merck Millipore, Ltd., Tullagreen, Ireland), peak protein fractions were concentrated and run over a Superdex-200 10/300 GL column (GE Healthcare Life Sciences, Piscataway, N.J.) in 10 mM Tris, 200 mM NaCl, 0.2 mM EDTA, pH 8. HGFA containing fractions were pooled, concentrated, made 50% glycerol, and stored at minus 20° C. Protein was quantitated using a modified Lowry protein assay (#500-0006, Bio-Rad Laboratories, Hercules, Calif.).
Using Gen 5 2.00 software program (Biotek, Winnoski, Vt.), a four parameter curve fit was used to determine the inhibitor IC50s from a plot of the mean reaction velocity versus the inhibitor concentration. The IC50 values represent the average of three separate experimental determinations.

A further experiment has as its target T2, hepsin (Homo sapiens, UniProt P05981).
T2 construct: purchased R&D Systems 4776-SE-010
Put plainly: Fluorescent kinetic enzyme inhibitor assay of hepsin. Particulars: for pIC50: Table 4.1. An outline of the steps: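 Fluorescence (ex 380/em 460 nm) followed kinetically at room temperature; IC50 from four-parameter fit of mean velocity versus concentration, averaged over three experiments.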

Another experiment concerns the target thrombin (Homo sapiens, UniProt P00734). The experiment is described as follows: Chromogenic kinetic enzyme assay of thrombin. Particulars: Table 4.1; read-out: Thrombin Ki. The method in brief: (§1)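 Recombinant human thrombin (0.15 nM) or Factor Xa (0.35 nM) was mixed with 11-point inhibitor dilutions (0–20 μM, 2% DMSO) in TNC buffer, pH 8. Kinetic absorbance at 405 nm gave velocities. IC50 came from a four-parameter fit and Ki from Cheng–Prusoff.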

In the next experiment the target is Factor Xa (Homo sapiens, UniProt P00742). Put plainly: Chromogenic kinetic enzyme assay of Factor Xa. As to conditions: Table 4.1; read-out: Factor Xa Ki. An outline of the steps:
as §1

[1] abbreviates: Table 4.2, Boc-QAR-AMC substrate, read-out: Hepsin Ki.

Sequence of Factor Xa (P00742 235-488 limits assumed): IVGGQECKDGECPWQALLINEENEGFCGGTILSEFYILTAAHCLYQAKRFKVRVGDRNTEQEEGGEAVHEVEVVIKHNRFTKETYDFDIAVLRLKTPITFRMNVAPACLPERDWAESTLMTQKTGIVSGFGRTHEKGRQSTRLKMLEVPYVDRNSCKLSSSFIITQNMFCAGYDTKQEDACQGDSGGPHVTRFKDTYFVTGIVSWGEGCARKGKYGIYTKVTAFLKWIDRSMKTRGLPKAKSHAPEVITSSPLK
Sequence of Factor Xa (P00742 41-179 partner limits assumed): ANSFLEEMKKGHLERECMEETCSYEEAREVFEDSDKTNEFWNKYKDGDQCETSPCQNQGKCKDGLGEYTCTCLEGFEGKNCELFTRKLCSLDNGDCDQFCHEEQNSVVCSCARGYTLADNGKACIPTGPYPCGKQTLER
T2 sequence (P05981 163-417 limits assumed): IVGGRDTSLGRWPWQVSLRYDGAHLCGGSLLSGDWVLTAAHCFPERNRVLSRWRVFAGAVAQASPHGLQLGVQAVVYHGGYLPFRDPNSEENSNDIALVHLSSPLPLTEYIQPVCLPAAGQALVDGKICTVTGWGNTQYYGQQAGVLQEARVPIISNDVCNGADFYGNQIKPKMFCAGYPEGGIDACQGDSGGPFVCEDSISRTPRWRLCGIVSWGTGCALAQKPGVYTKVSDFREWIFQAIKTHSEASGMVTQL
T2 sequence (P05981 45-162 partner limits assumed): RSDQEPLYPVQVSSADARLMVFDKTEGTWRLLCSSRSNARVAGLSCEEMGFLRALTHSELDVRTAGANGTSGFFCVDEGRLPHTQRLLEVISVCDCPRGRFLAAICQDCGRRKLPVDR

Broadly, the pIC50 is −log10 of the IC50, conventionally taken in molar units. As a reminder, the pKi is −log10 of the Ki, conventionally taken in molar units. For `CC(=O)N[C@@H](CCCCN)C(=O)N[C@@H](CCC(N)=O)C(=O)N[C@@H](CC(C)C)C(=O)N[C@@H](CCCNC(=N)N)C(=O)c1nccs1` [Compound 5, Ac-KQLR(SEQ ID NO: 1)-kt], the results for the pIC50 against HGFA and at hepsin were 6.35 and 8.70, respectively. For the same compound, the “fold more potent for hepsin versus HGFA” value on hepsin was found to be 200 fold. In addition, the pKi is 9.72 at hepsin (setting [1]), less than 4.70 at thrombin and 6.77 at Factor Xa.

`CC(=O)N[C@@H](CCCCN)C(=O)N[C@@H](CCC(N)=O)C(=O)N[C@@H](Cc1ccccc1)C(=O)N[C@@H](CCCNC(=N)N)C(=O)c1nccs1` [Compound 5c, Ac-KQFR(SEQ ID NO: 4)-kt]: the pIC50 on HGFA was 6.33. Further, the negative-log Ki (pKi) on hepsin (setting [1]) is 9.24; at thrombin it was less than 4.70; at Factor Xa, 7.10.

Take `CC(=O)N[C@@H](CCCNC(=N)N)C(=O)N[C@@H](CCC(N)=O)C(=O)N[C@@H](CC(C)C)C(=O)N[C@@H](CCCNC(=N)N)C(=O)c1nccs1` [Compound 5e, Ac-RQLR(SEQ ID NO: 6)-kt]: the pIC50 is 6.57 on HGFA and 9.00 on hepsin. Also, the pKi was less than 4.70 at thrombin and 8.09 on Factor Xa.

Consider `CC(=O)N[C@@H](CCCCN)C(=O)N[C@@H](CCCNC(=N)N)C(=O)N[C@@H](CC(C)C)C(=O)N[C@@H](CCCNC(=N)N)C(=O)c1nccs1` [Compound 5g, Ac-KRLR(SEQ ID NO: 8)-kt], for which the negative logarithm of the IC50 (pIC50) against HGFA was 6.65; on hepsin, 8.30.

`CC(=O)N[C@@H](Cc1c[nH]c2ccccc12)C(=O)N[C@@H](CCCNC(=N)N)C(=O)N[C@@H](CC(C)C)C(=O)N[C@@H](CCCNC(=N)N)C(=O)c1nccs1` [Compound 5h, Ac-WRLR(SEQ ID NO: 9)-kt]: the negative-log IC50 (pIC50) was 6.56 on HGFA and 9.52 on hepsin. The negative logarithm of the Ki (pKi) on hepsin (setting [1]) was 9.68.

At HGFA, `CC(=O)N[C@@H](CO)C(=O)N[C@@H](CCCCN)C(=O)N[C@@H](CC(C)C)C(=O)N[C@@H](CCCNC(=N)N)C(=O)c1nccs1` [Compound 6, Ac-SKLR(SEQ ID NO: 10)-kt] showed a pIC50 of 6.25. For the same compound, the “fold more potent for hepsin versus HGFA” value on hepsin was determined as 70 fold. Further, the negative-log Ki (pKi) on hepsin (setting [1]) was 8.92; on thrombin it was less than 4.70; at Factor Xa, 5.51.

Take `CC(=O)N[C@@H](CO)C(=O)N[C@@H](CCCCN)C(=O)N[C@@H](Cc1ccccc1)C(=O)N[C@@H](CCCNC(=N)N)C(=O)c1nccs1` [Compound 6c, Ac-SKFR(SEQ ID NO: 13)-kt]: the pIC50 against HGFA was 6.28; on hepsin it was 7.29. Also, the pKi is less than 5.70 on thrombin and 6.28 at Factor Xa.

On to `CC(=O)N[C@@H](CO)C(=O)N[C@@H](CCCNC(=N)N)C(=O)N[C@@H](CC(C)C)C(=O)N[C@@H](CCCNC(=N)N)C(=O)c1nccs1` [Compound 6e, Ac-SRLR(SEQ ID NO: 15)-kt], for which the pIC50 on HGFA was 6.52; on hepsin, 8.30.

Regarding `CC(=O)N[C@@H](CO)C(=O)N[C@@H](Cc1c[nH]c2ccccc12)C(=O)N[C@@H](CC(C)C)C(=O)N[C@@H](CCCNC(=N)N)C(=O)c1nccs1` [Compound 6g, Ac-SWLR(SEQ ID NO: 17)-kt], the pIC50 at HGFA is 6.36; on hepsin, 8.05. In addition, the figures for the negative-log Ki (pKi) at hepsin (read-out: Ki for hepsin), at thrombin and at Factor Xa were 8.92, 5.43 and 6.12, respectively.

As for `N=C(N)c1ccc2cc(OC(=O)c3ccc(N=C(N)N)cc3)ccc2c1` [Nafamostat, reference compound], the figures for the negative-log IC50 (pIC50) at HGFA and on hepsin were 6.10 and 8.70, respectively. Moreover, the negative-log Ki (pKi) on hepsin (setting [1]) was 9.28.
